From US10428074B2, “Pyrrole heteroaryl ring derivative and method of use thereof” (Jiangsu Hengrui Medicine Co., Ltd., priority 2011, dated 2019)

These compounds were tested on T cells (assay: Proliferation inhibition assay on T cells (PBMC, anti-CD3, IL-2)). Conditions: Homo sapiens, T-cell, 72 h, IL-2 10 ng/mL.
Type: cell-based, human
From the text: The following in vitro assay is to determine the activity of the compounds of the present invention for inhibiting the proliferation of T cells.
The activity is represented by the IC50 value.
The general procedures of the assay are given as follows: first, the PBMC cell line (purchased from Shanghai Blood Center) was centrifuged, the supernatant was removed, and the cells counted. […] Then, the cells were washed 3 times, resuspended, diluted to 2×10^6/mL, and then mixed with recombinant human IL-2 (purchased from Peprotech, Catalog Number: 200-02) to a concentration of 10 ng/mL, and cultured for another 3 days. The cells were washed again 3 times, and diluted to 5×10^5/mL. 80 μL of the cells were seeded in each well of a 96-well cell culture plate. […] To he control wells, 10 μL culture medium were added. The plate was placed in an incubator. After incubating for 1 hr, negative control wells were mixed with 10 μL of culture medium, and the rest of the wells were mixed with IL-2 to a concentration of 10 ng/mL, and incubated continuously for 72 hours. […] IC50 values were calculated from the data of inhibition rates at various concentrations of the test compounds.

Compared with `CN(c1ncnc2[nH]ccc12)[C@H]1C[C@@H]2CN(C(=O)CO)C[C@@H]2C1` [Example 6, 2-Hydroxy-1-((3aR,5S,6aS)-5-(methyl(7H-pyrrolo[2,3-d]pyrimidin-4-yl)amino)hexahydrocyclopenta[c]pyrrol-2(1H)-yl)ethanone], `CN(c1ncnc2[nH]ccc12)[C@H]1C[C@@H]2CN(C(=O)CNS(C)(=O)=O)C[C@@H]2C1` [Example 21, N-(2-((3aR,5S,6aS)-5-(Methyl(7H-pyrrolo[2,3-d]pyrimidin-4-yl)amino)hexahydrocyclopenta[c]pyrrol-2(1H)-yl)-2-oxoethyl)methanesulfonamide] is 2.2-fold higher in IC50: 414 nM for the first, 892 nM for the second.

Going from `CN(c1ncnc2[nH]ccc12)[C@H]1C[C@@H]2CN(S(=O)(=O)C3CC3)C[C@@H]2C1` [Example 15, N-((3aR,5S,6aS)-2-(Cyclopropylsulfonyl)octahydrocyclopenta[c]pyrrol-5-yl)-N-methyl-7H-pyrrolo[2,3-d]pyrimidin-4-amine] to `CN(c1ncnc2[nH]ccc12)[C@H]1C[C@@H]2CN(CCC#N)C[C@@H]2C1` [Example 27, 3-((3 aR,5S,6aS)-5-(Methyl(7H-pyrrolo[2,3-d]pyrimidin-4-yl)amino)hexahydrocyclopenta[c]pyrrol-2(1H)-yl)propanenitrile], the IC50 falls from 853 nM to 253 nM (3.4-fold).

`COC(=O)CN1C[C@H]2C[C@H](N(C)c3ncnc4[nH]ccc34)C[C@H]2C1` [Example 24, Methyl 2-((3aR,5S,6aS)-5-(methyl(7H-pyrrolo[2,3-d]pyrimidin-4-yl)amino)hexahydrocyclopenta[c]pyrrol-2(1H)-yl)acetate] and `CN(c1ncnc2[nH]ccc12)[C@@H]1C[C@@H]2CN(CCC#N)C[C@@H]2C1` [Example 68, 3-((3aR,5R,6aS)-5-(methyl(7H-pyrrolo[2,3-d]pyrimidin-4-yl)amino)hexahydrocyclopenta[c]pyrrol-2(1H)-yl)propanenitrile] are within 1.5-fold of each other in IC50: 851 nM for the first, 824 nM for the second.

`CN(c1ncnc2[nH]ccc12)[C@H]1C[C@H]2CNC(=O)C[C@H]2C1` [Example 40, (4aR,6R,7aR)-6-(Methyl(7H-pyrrolo[2,3-d]pyrimidin-4-yl)amino) hexahydro-1H-cyclopenta[c]pyridin-3(2H)-one] and `CN(c1ncnc2[nH]ccc12)[C@@H]1CC2CNC(=O)CC2C1` (stereo partly drawn) [Example 148, (6S)-6-(methyl(7H-pyrrolo[2,3-d]pyrimidin-4-yl)amino) hexahydro-1H-cyclopenta[c] pyridin-3(2H)-one] are the same in IC50: 48 nM for the first, 48 nM for the second.

In the case of `CN(c1ncnc2[nH]ccc12)[C@H]1C[C@@H]2CN(CC(F)(F)F)C[C@@H]2C1` [Example 56, N-methyl-N-((3aR,5S,6aS)-2-(2,2,2-trifluoroethyl)octahydrocyclopenta [c]pyrrol-5-yl)-7H-pyrrolo[2,3-d]pyrimidin-4-amine], the IC50 is reported as 119 nM.

Same assay, conditions: Homo sapiens, T-cell; IL-2 10 ng/mL, 72 hours

First: CN(c1ncnc2[nH]ccc12)[C@H]1C[C@@H]2CN(C(=O)CC#N)C[C@@H]2C1 [Example 8, 3-((3 aR,5S,6aS)-5-(Methyl(7H-pyrrolo[2,3-d]pyrimidin-4-yl)amino)hexahydrocyclopenta[c]pyrrol-2(1H)-yl)-3-oxopropanenitrile]
Second: CN(c1ncnc2[nH]ccc12)[C@H]1C[C@@H]2CN(C(=O)CCC#N)C[C@@H]2C1 [Example 22, 4-((3aR,5S,6aS)-5-(Methyl(7H-pyrrolo[2,3-d]pyrimidin-4-yl)amino)hexahydrocyclopenta[c]pyrrol-2(1H)-yl)-4-oxobutanenitrile]
The IC50 of the first is 1.6-fold higher: 460 nM for the first, 281 nM for the second. The second is the more potent here.

`CC(=O)N1C[C@H]2C[C@H](N(C)c3ncnc4[nH]ccc34)C[C@H]2C1` [Example 11, 1-((3aR,5S,6aS)-5-(Methyl(7H-pyrrolo[2,3-d]pyrimidin-4-yl)amino)hexahydrocyclopenta[c]pyrrol-2(1H)-yl)ethanone] and `CCC(=O)N1C[C@H]2C[C@H](N(C)c3ncnc4[nH]ccc34)C[C@H]2C1` [Example 84, 1-((3aR,5S,6aS)-5-(methyl(7H-pyrrolo[2,3-d]pyrimidin-4-yl)amino)hexahydrocyclopenta[c]pyrrol-2(1H)-yl)propan-1-one] are within 1.5-fold of each other in IC50: 705 nM for the first, 509 nM for the second.

`CN(c1ncnc2[nH]ccc12)[C@H]1C[C@@H]2CN(C(=O)C3CC3)C[C@@H]2C1` [Example 13, Cyclopropyl((3aR,5S,6aS)-5-(methyl(7H-pyrrolo[2,3-d]pyrimidin-4-yl)amino)hexahydrocyclopenta[c]pyrrol-2(1H)-yl)methanone] and `CN(c1ncnc2[nH]ccc12)[C@@H]1C[C@@H]2CN(C(=O)CO)C[C@@H]2C1` [Example 23, 2-Hydroxy-1-((3aR,5R,6aS)-5-(methyl(7H-pyrrolo[2,3-d]pyrimidin-4-yl)amino)hexahydrocyclopenta[c]pyrrol-2(1H)-yl)ethanone] are within 1.5-fold of each other in IC50: 754 nM for the first, 543 nM for the second.

Compared with `COc1cncc(NC(=O)N2C[C@H]3C[C@H](N(C)c4ncnc5[nH]ccc45)C[C@H]3C2)c1` [Example 109, (3aR,5S,6aS)-N-(5-methoxypyridin-3-yl)-5-(methyl(7H-pyrrolo[2,3-d]pyrimidin-4-yl)amino)hexahydrocyclopenta[c] pyrrole-2(1H)-carboxamide], `CCc1nsc(NC(=O)N2C[C@H]3C[C@H](N(C)c4ncnc5[nH]ccc45)C[C@H]3C2)n1` [Example 121, (3aR,5S,6aS)-N-(3-ethyl-1,2,4-thiadiazol-5-yl)-5-(methyl(7H-pyrrolo[2,3-d]pyrimidin-4-yl)amino)hexahydrocyclopenta[c] pyrrole-2(1H)-carboxamide] is 32-fold lower in IC50: 762 nM for the first, 24 nM for the second.

`CN(c1ncnc2[nH]ccc12)[C@@H]1C[C@@H]2CCN(C(=O)Nc3nncs3)C[C@@H]2C1` [Example 150, (4aS,6R,7aR)-6-(methyl(7H-pyrrolo[2,3-d]pyrimidin-4-yl)amino)-N-(1,3,4-thiadiazol-2-yl)hexahydro-1H-cyclopenta[c]pyridine-2(3H)-carboxamide] was tested, and the IC50 was 221 nM.

Same assay, conditions: IL-2 10 ng/mL, 72 hours; read-out: IC50(T cell)

For `CN(c1ncnc2[nH]ccc12)[C@@H]1C[C@H]2CN(C(=O)CO)C[C@@]2(C)C1` (racemic) [Example 14, 2-Hydroxy-1-((3aS,5R,6aR/3aS,5R,6aR)-3a-methyl-5-(methyl(7H-pyrrolo[2,3-d]pyrimidin-4-yl)amino)hexahydrocyclopenta[c]pyrrol-2(1H)-yl)ethanone], the IC50 was 712 nM.

What follows are compounds tested on human erythroid leukemia cell line TF-1 (assay: Proliferation inhibition assay on TF-1 cells mediated by IL-4). Conditions: 10 ng/mL IL-4, 72 hours.
Type: cell-based
From the text: The following in vitro assay is to determine the activity of the compounds of the present invention for inhibiting the proliferation of human erythroid leukemia cell line TF-1.
The activity is represented by the IC50 value, which can not only reflect the activity of a test compound for inhibiting JAK2 and JAK3 kinase, but can also reflect the selectivity of a test compound for JAK2 and JAK3 kinase.
The general procedures of the assay are given as follows: first, the TF-1 cells (purchased from ATCC, Catalog number: CRL 2003) were seeded in a 96-well cell culture plate at a suitable cell concentration (8000 cells/mL medium), and 10 ng/mL IL-4 (Invitrogen, Catalog Number: PHC0044) were added to each well. Then 10× serial concentration gradient of test compounds solutions (10000, 1000, 100, 10, 1 and 0.1 nM) were prepared, and then the 10× compound solutions prepared above were added to the 96-well cell culture plate containing IL-4. After the cell plates were cultured continuously for 72 hours, the activity of the test compounds for inhibiting the cell proliferation was determined by using a Cell Counting Kit-8 (purchased from Dojindo, Catalog Number: CK04). IC50 values were calculated from the data of the inhibition rates at various concentrations of the test compounds.

`CN(c1ncnc2[nH]ccc12)[C@@H]1C[C@@H]2CN(C(=O)OC(C)(C)C)C[C@]2(C)C1` (racemic) [Example 1, (3aR,5R,6aS/3aS,5S,6aR)-tert-butyl-3a-methyl-5-(methyl(7H-pyrrolo[2,3-d]pyrimidin-4-yl)amino)hexahydro cyclopenta[c]pyrrole-2(1H)-carboxylate] and `CN(c1ncnc2[nH]ccc12)[C@H]1C[C@@H]2CN(C(=O)OC(C)(C)C)C[C@@H]2C1` [Example 5, (3aR,5S,6aS)-tert-Butyl 5-(methyl(7H-pyrrolo[2,3-d]pyrimidin-4-yl)amino)hexahydro cyclopenta[c]pyrrole-2(1H)-carboxylate] are within 1.5-fold of each other in IC50: 196 nM for the first, 133 nM for the second.

`CN(c1ncnc2[nH]ccc12)[C@H]1C[C@@H]2CN(C(=O)CC#N)C[C@@H]2C1` [Example 8, 3-((3 aR,5S,6aS)-5-(Methyl(7H-pyrrolo[2,3-d]pyrimidin-4-yl)amino)hexahydrocyclopenta[c]pyrrol-2(1H)-yl)-3-oxopropanenitrile] and `CN(c1ncnc2[nH]ccc12)C1C[C@@H]2CCN(C(=O)CC#N)C[C@@H]2C1` (stereo partly drawn) [Example 39, 3-((4aS,7aR)-6-(Methyl(7H-pyrrolo[2,3-d]pyrimidin-4-yl)amino)hexahydro-1H-cyclopenta[c]pyridin-2(3H,4H,4aH,5H,6H,7H,7aH)-yl)-3-oxopropanenitrile] are within 1.5-fold of each other in IC50: 530 nM for the first, 419 nM for the second.

First: CC(=O)N1C[C@H]2C[C@H](N(C)c3ncnc4[nH]ccc34)C[C@H]2C1 [Example 11, 1-((3aR,5S,6aS)-5-(Methyl(7H-pyrrolo[2,3-d]pyrimidin-4-yl)amino)hexahydrocyclopenta[c]pyrrol-2(1H)-yl)ethanone]
Second: CN(c1ncnc2[nH]ccc12)[C@H]1C[C@@H]2CN(C(=O)Nc3nc(C4CC4)ns3)C[C@@H]2C1 [Example 125, (3aR,5S,6aS)-N-(3-cyclopropyl-1,2,4-thiadiazol-5-yl)-5-(methyl(7H-pyrrolo[2,3-d]pyrimidin-4-yl)amino) hexahydrocyclopenta [c]pyrrole-2(1H)-carboxamide]
The IC50 of the first is 36-fold higher: 507 nM for the first, 14 nM for the second.

`Cc1noc(N2C[C@H]3C[C@H](N(C)c4ncnc5[nH]ccc45)C[C@H]3C2)n1` [Example 61, N-methyl-N-((3aR,5S,6aS)-2-(3-methyl-1,2,4-oxadiazol-5-yl)octahydrocyclopenta[c]pyrrol-5-yl)-7H-pyrrolo[2,3-d] pyrimidin-4-amine] and `CN(c1ncnc2[nH]c(F)cc12)[C@H]1C[C@@H]2CN(C(=O)CO)C[C@@H]2C1` [Example 129, 1-((3aR,5S,6aS)-5-((6-fluoro-7H-pyrrolo[2,3-d]pyrimidin-4-yl)(methyl)amino)hexahydrocyclopenta[c]pyrrol-2(1H)-yl)-2-hydroxyethanone] are within 1.5-fold of each other in IC50: 507 nM for the first, 539 nM for the second.

Same assay, conditions: TF-1, 72 h, 10 ng/mL IL-4, 72 hours

`CN(c1ncnc2[nH]ccc12)[C@H]1C[C@@H]2CN(C(=O)CO)C[C@@H]2C1` [Example 6, 2-Hydroxy-1-((3aR,5S,6aS)-5-(methyl(7H-pyrrolo[2,3-d]pyrimidin-4-yl)amino)hexahydrocyclopenta[c]pyrrol-2(1H)-yl)ethanone] showed an IC50 of 457 nM.
